{"source": "patent US20260256799A1", "about": "“INHIBITORS FOR TREATING SOLID TUMOURS” (UNIVERSITY OF SOUTHAMPTON, priority 2023, published 2026)", "system": "HNSCC and NSCLC CAF", "assay": "Established myoCAF phenotype of CAF cultured ex vivo", "format": "cell-based, human", "description": "Human NSCLC cell line H441, HNSCC SCC25, murine cancer cell line TC-1 (lung), MC38 (colon) and human fetal foreskin fibroblasts HFFF2 were purchased from European Collection of Cell Cultures (Public Health England) or ATCC; HNSCC 5PT [32] were provided by l. Mackenzie (Queen Mary University of London, UK). HEK-293T cells and IMR90 lung fibroblasts were provided by Jesus Gil (Imperial College, London, UK). SCC25 were grown in Ham's F12:DMEM (1:1 ratio) medium with 10% FBS (Calbiochem) and 292 μg/ml L-Glutamine. 5PT were cultured in keratinocyte growth medium. HEK-293T, H441, MC38, HFFF2, IMR90 and primary fibroblasts were grown in DMEM supplemented with 10% FBS and 292 μg/ml L-Glutamine. Primary fibroblasts were isolated as previously used at early passage (p1-10). C57BL/6 murine normal lung and colon fibroblasts (MLF and MCF respectively) were grown at 3% oxygen. TC-1 were cultured in RPMI supplemented with 10% FBS and 292 μg/ml L-Glutamine. All cell cultures were routinely tested for mycoplasma contamination. All cells were cultured using standard cell culture plates/flasks (Corning). HFFF2 or IMR90 cells were transfected with 25 μM On-Target pool siRNA (Thermo Scientific/Dharmacon) using Oligofectamine reagent (Life Technologies) as described. Stable knockdown was performed using retro/lentiviral mediated transduction of shRNA plasmids, as previously described followed by cell selection using 1 μg/ml puromycin for 5-7 days. NOX4-inducible HEK-293 cells (kindly provided by Vincent Jaquet) were treated with 1 μg/ml doxycycline. Wild type and mutant (C2991L) ATM over-expression was carried out transfecting HFFF2 with Viafect (Promega) according to manufacturer's instructions and selected for 10 days with 4 mg/ml G418. p-Retrosuper-shATM (ATM #1:912) and pCDNA3.1-Flag-mut-ATM (C2991L; pTP1625 clone) were kindly provided by Yosef Shiloh and Tanya Paull respectively. pLKO.1 murine shATM (TRCN0000012643) and pCDNA3.1-Flag-wt-ATM (31985) were purchased from Sigma and Addgene respectively. 2 ng/ml TGF-3 (TGF-β1; R&D Systems; for 3 days) was used to induce myofibroblast differentiation. 10 ng/ml IL-1pR (R&D Systems) for 72 hours was used to induce iCAF differentiation. […] All the inhibitors were resuspended in DMSO. To trigger DDR activation and/or cell stress HFFF2 were either irradiated with 2-100Gy using 350Kv X-Ray Irradiation System (Faxitron), or treated with 100 ng/ml Neocarzinostatin for 2 hours (NCS; Sigma), with 2-10 mM H2O2(Fisher Scientific) or with 5 μg/ml Cisplatin (Sandoz) for 30 minutes.\nCells were lysed in ice-cold RIPA buffer [1% NP40, 150 mM NaCl, 25 mM Tris-HCl pH 7.5, 0.1% SDS, 1% Na-Deoxycolate, 1 mM EGTA, 1 mM EDTA, 1 mM Na-orthovanadate, 10 mM Na-fluoride, 2.5 mM Na-pyrophosphate, 1 mM p glycerophosphate+freshly added 1 mM PMSF, 20 mM N-Ethylmaleimide (NEM), 10 ng/ml Microcystin-LR, 0.12 μM Okadaic acid and phosphatase and protease inhibitor cocktails; all from Sigma]. Protein extracts were then centrifuged and supernatants quantified using Dc-Bio-Rad protein assay kit (Bio-Rad laboratories) as previously. For nuclear-cytoplasmic protein extraction, the inventors used NE-PER Reagents according to manufacturer's instructions (Thermofisher). Equal amounts of protein were electrophoresed either in reducing (+Dithiothreitol, DTT) or in non-reducing conditions in 3-8% or 4-12% SDS-PAGE gels and electro blotted as previously.", "data": [{"smiles": "CN(C)CCCOc1ccc(-c2ccc3ncc4c(c3c2)n(C2CCOCC2)c(=O)n4C)cn1", "note": "[AZD0156]", "values": [{"measurement": "myoCAF differentiation (reversal)", "setting": "CAF E treated with AZD0156 for 5 days, Q-RT-PCR", "value": "reversed"}, {"measurement": "reversal of myoCAF differentiation after AZD0156 treatment was discontinued", "setting": "CAF E, 5 days AZD0156 then further 5 days without AZD0156", "value": "maintained"}]}]}
